In patent US9962369B2, “Methods and compositions for transdermal delivery” (SPRAYABLE HOLDINGS, INC., priority 2014, dated 2018):

Test system: human skin tissue
Assay: Penetration rate of AI compound in AI-helper composition through human skin in vitro, modified Franz cells
Type: in vitro ADME
Conditions: for Skin penetration rate of alpha-lipoic acid: 20° C.; for Skin penetration rate of Al compound: Al compound 0.5% w/v; for Skin penetration rate of Al compound / Skin penetration rate of AI compound: 25 °C
Procedure: Penetration rate of AI compound in the AI-helper composition through human skin were measured in vitro by modified Franz cells. A Franz cell had two chambers: the top sample chamber and the bottom receiving chamber. The human skin tissue (450-500 μm thick) that separated the top and the receiving chambers was isolated from the anterior or posterior thigh areas.

[1] = 2-(Diethylamino)ethyl 2-(4-isobutylphenyl)propionate hydrochloride 6% w/v, water
[2] = D-Phenylalanine isopropyl ester hydrochloride 6% w/v, water
[3] = Dialkylaminoalkyl 2-(4-isobutylphenyl)propionate: None
[4] = L-Phenylalanine isopropyl ester hydrochloride 6% w/v, water
[5] = no isoleucine ester (None), AI compound 0.5 % w/v in water
[6] = no leucine ester (None), AI compound 0.5 % w/v in water
[7] = no tryptophan ester (None), AI compound 0.5 % w/v in water
[8] = with D-isoleucine isopropyl ester hydrochloride 6 % w/v in water, AI compound 0.5 % w/v
[9] = with D-leucine isopropyl ester hydrochloride 6 % w/v in water, AI compound 0.5 % w/v
[10] = with D-tryptophan isopropyl ester hydrochloride 6 % w/v in water, AI compound 0.5 % w/v
[11] = with L-isoleucine isopropyl ester hydrochloride 6 % w/v in water, AI compound 0.5 % w/v
[12] = with L-leucine isopropyl ester hydrochloride 6 % w/v in water, AI compound 0.5 % w/v
[13] = with L-tryptophan isopropyl ester hydrochloride 6 % w/v in water, AI compound 0.5 % w/v

SMILES | Skin penetration rate of Al compound [1] [μg/cm^2/h] | Skin penetration rate of Al compound [2] [μg/cm^2/h] | Skin penetration rate of Al compound [3] [μg/cm^2/h] | Skin penetration rate of Al compound [4] [μg/cm^2/h] | Skin penetration rate of Al compound (Phenylalanine ester: None) [μg/cm^2/h] | Skin penetration rate of AI compound [5] [μg/cm^2/h] | Skin penetration rate of AI compound [6] [μg/cm^2/h] | Skin penetration rate of AI compound [7] [μg/cm^2/h] | Skin penetration rate of AI compound [8] [μg/cm^2/h] | Skin penetration rate of AI compound [9] [μg/cm^2/h] | Skin penetration rate of AI compound [10] [μg/cm^2/h] | Skin penetration rate of AI compound [11] [μg/cm^2/h] | Skin penetration rate of AI compound [12] [μg/cm^2/h] | Skin penetration rate of AI compound [13] [μg/cm^2/h] | also measured
O=C(O)CCCCC1CCSS1 (stereo not drawn) [Alpha-lipoic acid] | 30.478 ± 2.982 | 31.796 ± 3.176 | 0.056 ± 0.032 | 32.878 ± 3.568 | 0.058 ± 0.047 | 0.057 ± 0.036 | 0.051 ± 0.023 | 0.071 ± 0.063 | 28.013 ± 2.078 | 27.476 ± 2.116 | 35.456 ± 2.476 | 28.897 ± 2.126 | 28.377 ± 2.378 | 36.378 ± 2.978 | Skin penetration rate of alpha-lipoic acid (0.5% alpha-lipoic acid without helper esters): 0.071 ± 0.063 μg/cm^2/h; Skin penetration rate of alpha-lipoic acid (alpha-lipoic acid 0.5% w/v, Tryptophan isopropyl ester•HA 6% w/v, HA = 1/2H2SO4, water): 33.928 ± 2.876 μg/cm^2/h; Skin penetration rate of alpha-lipoic acid (alpha-lipoic acid 0.5% w/v, Tryptophan isopropyl ester•HA 6% w/v, HA = 1/3H3PO4, water): 34.321 ± 2.867 μg/cm^2/h; Skin penetration rate of alpha-lipoic acid (alpha-lipoic acid 0.5% w/v, Tryptophan isopropyl ester•HA 6% w/v, HA = 2/3H3PO4, water): 34.691 ± 3.511 μg/cm^2/h; Skin penetration rate of alpha-lipoic acid (alpha-lipoic acid 0.5% w/v, Tryptophan isopropyl ester•HA 6% w/v, HA = Acetic acid, water): 35.006 ± 2.892 μg/cm^2/h; Skin penetration rate of alpha-lipoic acid (alpha-lipoic acid 0.5% w/v, Tryptophan isopropyl ester•HA 6% w/v, HA = Benzoic acid, water): 34.665 ± 3.019 μg/cm^2/h; Skin penetration rate of alpha-lipoic acid (alpha-lipoic acid 0.5% w/v, Tryptophan isopropyl ester•HA 6% w/v, HA = Butyric acid, water): 35.178 ± 3.598 μg/cm^2/h; Skin penetration rate of alpha-lipoic acid (alpha-lipoic acid 0.5% w/v, Tryptophan isopropyl ester•HA 6% w/v, HA = Citric acid, water): 35.371 ± 3.587 μg/cm^2/h; Skin penetration rate of alpha-lipoic acid (alpha-lipoic acid 0.5% w/v, Tryptophan isopropyl ester•HA 6% w/v, HA = H2SO4, water): 33.780 ± 2.891 μg/cm^2/h; Skin penetration rate of alpha-lipoic acid (alpha-lipoic acid 0.5% w/v, Tryptophan isopropyl ester•HA 6% w/v, HA = HBr, water): 35.211 ± 3.285 μg/cm^2/h; Skin penetration rate of alpha-lipoic acid (alpha-lipoic acid 0.5% w/v, Tryptophan isopropyl ester•HA 6% w/v, HA = HCl, water): 35.456 ± 2.476 μg/cm^2/h; Skin penetration rate of alpha-lipoic acid (alpha-lipoic acid 0.5% w/v, Tryptophan isopropyl ester•HA 6% w/v, HA = HF, water): 34.673 ± 3.156 μg/cm^2/h; Skin penetration rate of alpha-lipoic acid (alpha-lipoic acid 0.5% w/v, Tryptophan isopropyl ester•HA 6% w/v, HA = HI, water): 34.467 ± 2.583 μg/cm^2/h; Skin penetration rate of alpha-lipoic acid (alpha-lipoic acid 0.5% w/v, Tryptophan isopropyl ester•HA 6% w/v, HA = Lactic acid, water): 35.007 ± 2.879 μg/cm^2/h
CC1=C(/C=C/C(C)=C/C=C/C(C)=C/C=C/C=C(C)/C=C/C=C(C)/C=C/C2=C(C)C(=O)[C@@H](O)CC2(C)C)C(C)(C)C[C@H](O)C1=O [Astaxanthin] | 12.331 ± 2.182 | 12.431 ± 2.178 | 0.019 ± 0.010 | 12.341 ± 2.042 | 0.019 ± 0.011 | 0.013 ± 0.009 | 0.010 ± 0.008 | 0.012 ± 0.013 | 11.354 ± 2.452 | 11.134 ± 2.183 |  | 11.431 ± 2.312 | 11.251 ± 2.112 |  | 
CC1=C(/C=C/C(C)=C/C=C/C(C)=C/C=C/C=C(C)/C=C/C=C(C)/C=C/C2=C(C)CCCC2(C)C)C(C)(C)CCC1 [Beta Carotene] | 10.138 ± 2.381 | 10.658 ± 2.003 | 0.015 ± 0.011 | 10.772 ± 2.174 | 0.019 ± 0.008 | 0.015 ± 0.007 | 0.012 ± 0.011 | 0.009 ± 0.013 | 9.471 ± 2.323 | 9.501 ± 2.763 | 11.598 ± 2.173 | 9.412 ± 2.781 | 9.252 ± 2.321 | 11.372 ± 2.326 | 
Nc1nc2ncc(CNc3ccc(C(=O)N[C@@H](CCC(=O)O)C(=O)O)cc3)nc2c(=O)[nH]1 [Folic acid] | 6.235 ± 1.356 | 6.771 ± 2.872 | 0.012 ± 0.007 | 6.757 ± 3.012 | 0.012 ± 0.007 | 0.012 ± 0.007 | 0.007 ± 0.012 | 0.009 ± 0.011 | 5.598 ± 2.812 | 5.523 ± 3.012 | 6.725 ± 3.327 | 5.793 ± 3.116 | 5.786 ± 3.162 | 6.915 ± 3.452 | 

More lines, main results first:

Skin penetration rate of Al compound [1] [μg/cm^2/h] | Skin penetration rate of Al compound [2] [μg/cm^2/h] | Skin penetration rate of Al compound [3] [μg/cm^2/h] | Skin penetration rate of Al compound [4] [μg/cm^2/h] | Skin penetration rate of Al compound (Phenylalanine ester: None) [μg/cm^2/h] | Skin penetration rate of AI compound [5] [μg/cm^2/h] | Skin penetration rate of AI compound [6] [μg/cm^2/h] | Skin penetration rate of AI compound [7] [μg/cm^2/h] | Skin penetration rate of AI compound [8] [μg/cm^2/h] | Skin penetration rate of AI compound [9] [μg/cm^2/h] | Skin penetration rate of AI compound [10] [μg/cm^2/h] | Skin penetration rate of AI compound [11] [μg/cm^2/h] | Skin penetration rate of AI compound [12] [μg/cm^2/h] | Skin penetration rate of AI compound [13] [μg/cm^2/h] | SMILES | also measured
16.356 ± 3.011 | 17.526 ± 2.451 | 0.012 ± 0.010 | 17.358 ± 2.259 | 0.016 ± 0.009 | 0.013 ± 0.011 | 0.011 ± 0.008 | 0.008 ± 0.013 | 14.581 ± 2.183 | 14.121 ± 2.131 | 18.126 ± 3.451 | 14.698 ± 2.321 | 14.128 ± 2.119 | 17.978 ± 3.479 | N[C@@H](CCC(=O)N[C@@H](CS)C(=O)NCC(=O)O)C(=O)O [Glutathione] | 
18.568 ± 3.112 | 18.745 ± 3.112 | 0.015 ± 0.011 | 18.978 ± 2.135 | 0.015 ± 0.011 | 0.016 ± 0.010 | 0.013 ± 0.011 | 0.017 ± 0.021 |  | 16.028 ± 2.862 | 20.728 ± 3.962 | 16.236 ± 2.805 | 16.126 ± 3.005 | 20.177 ± 3.195 | Oc1ccc(C=Cc2cc(O)cc(O)c2)cc1 [Resveratrol] | 
8.711 ± 1.871 | 8.339 ± 2.178 | 0.012 ± 0.006 | 8.372 ± 2.237 | 0.011 ± 0.006 | 0.009 ± 0.007 | 0.008 ± 0.009 | 0.005 ± 0.008 | 7.521 ± 2.312 | 7.231 ± 2.386 | 9.131 ± 2.321 | 7.247 ± 2.076 | 7.175 ± 2.257 | 9.172 ± 2.117 | NCCS(=O)(=O)O [Taurine] | 
 | 16.531 ± 2.106 | 0.023 ± 0.027 | 16.751 ± 2.012 | 0.057 ± 0.011 | 0.022 ± 0.017 | 0.029 ± 0.035 | 0.059 ± 0.031 | 13.468 ± 2.211 |  | 17.131 ± 2.332 | 13.632 ± 2.125 |  | 17.251 ± 2.415 | Cc1ncc(CO)c(CO)c1O.Cl [Vitamin B6] | 
